Assay results taken from patent publication US8222487B2, “Application of ERF genes from Bupleurum kaoi” (National Tsing Hua University, priority 2009, dated 2012).

Assays:
[1] = system: Staphylococcus aureus; assay: Inhibition of bacteria in BkERF transformed B. kaoi cells; assay type: cell-based; conditions: 6 days after infection, transformed B. kaoi cells overexpressing the gene
Source text: (§1) The BkERF1, BkERF2.1, and BkERF2.2 genes are SEQ ID NO. 3, SEQ ID NO. 1 and SEQ ID NO. 2 respectively. The coding region of BkERFs was cloned into the multiple cloning site of the binary vector under the CaMV 35S promoter and the nopaline synthase termination sequence. The resulting vector was introduced into the Agrobacterium tumefaciens which was introduced into the cells of B. kaoi. The B. kaoi cells overexpressed BkERFs genes were observed using Western blot.
(§2) Bacteria suspension of a concentration about 10^8 cfu/ml was made from bacteria cultured 1-2 days with culture medium, and inoculated to 0.2 g BkERF transformed calli then grown in a 25° C. incubator. After six days, the calli was homogenized in 10 mM magnesium sulfate. Serial dilution of the bacteria was prepared and spread on nutrient agar plate containing 50 mg/L rifampicin. The plates were put in a 28° C. incubator for two days and then the numbers of bacteria were calculated.

[2] = system: Psudomonas syringe; assay: as above; assay type: cell-based; conditions: 6 days after infection, transformed B. kaoi cells overexpressing the gene
Source text: as §1, §2

Substance | Growth of bacteria in the transformed cells (bacterial numbers) [1] | Growth of bacteria in the transformed cells (bacterial numbers) [2]
ERF1: B. kaoi ethylene response factor gene, ORF of 633 bp encoding 210 amino acids, overexpressed via binary vector | inhibited | inhibited
ERF2.1: B. kaoi ethylene response factor gene, ORF of 693 bp encoding 230 amino acids, overexpressed via binary vector | inhibited | inhibited
ERF2.2: B. kaoi ethylene response factor gene, ORF of 702 bp encoding 233 amino acids, overexpressed via binary vector | inhibited | inhibited
